# Earlier results in patent US20120035270A1, “PAEDIATRIC SOLUTIONS COMPRISING A BETA-BLOCKER” (priority 2009, published 2012).
# Columns and labels:
# [1] = system: Infantile capillary hemangiomas (IH); conditions: severe hemangiomas of infancy, Léauté-Labrèze et al. 2008
# [2] = system: B. Subtilis, S. Aureus and E. Coli; conditions: Takahashi et al. 1983
# B. Subtilis = conditions: growth of B. Subtilis
# S. Aureus = conditions: growth of S. Aureus
# E. Coli = conditions: growth of E. Coli
structure (smiles),measurement,setting,value
"CC(C)NCC(O)COc1cccc2ccccc12 (stereo not drawn) [propranolol, 1-(isopropylamino)-3-(naphthalen-1-yloxy)propan-2-ol]",control and treatment of the growth of IH,[1],could efficiently be used to control and even to treat the growth of IH
CC(=O)c1cc2cccc(OCC(O)CNC(C)C)c2o1 (stereo not drawn) [befunolol],antimicrobial effects,[2],do not have these antimicrobial effects
CC(C)(C)NC[C@H](O)COc1nsnc1N1CCOCC1 [Timolol],antimicrobial effects,[2],do not have these antimicrobial effects
Cc1ccc(Cl)c(OCC(O)CNC(C)(C)C)c1 (stereo not drawn) [bupranolol],minimum inhibitory concentration,B. Subtilis,0.1%
same,minimum inhibitory concentration,S. Aureus,0.05%
same,minimum inhibitory concentration,E. Coli,0.05%
